According to article PMC8632988, “Inhibition of SYK and cSrc kinases can protect bone and cartilage in preclinical models of osteoarthritis and rheumatoid arthritis” (Scientific Reports, 2021):
Where “and” joins values, the source holds several entries; their conditions need not be identical. Equal entries are not always repeated.

Key:
mongrel rats, AIA model = assay: Adjuvant-induced arthritis in rats; type: in vivo
Protocol: Rat adjuvant-induced arthritis (AIA) model was performed at Pharmenterprises, Russia as described previously^3 and approved by Ethics Committee of Pharmenterprises. Male 10 week old mongrel rats were divided into eleven groups: negative control (#1), positive control (#2) and nine treatment groups (#3–11), ten […] in each group. Group #1 was left intact, while subplantar injection of 0.1 mL of Complete Freund’s adjuvant (CFA, Sigma) was made on day 0 at right paws of rats in groups […]. […] Disease progression was monitored by measuring volumes of the right (involved) and left (non-involved) paws on days 0, 14, 18, 21, 25, and 28.

Lewis rats, CIA model = assay: Collagen-induced semi-established arthritis model in rats; type: in vivo, rat
Protocol: Rat CIA model was performed was performed at Pharmenterprises, Russia and approved by Ethics Committee of Pharmenterprises. Female Lewis rats with body weight of 164–183 g (Charles River Laboratories, Inc., Wilmington, MA) were injected with porcine type II collagen (Chondrex) emulsified with Freund’s Incomplete Adjuvant (Sigma Aldrich) at two sites at the base of the tail according to standard protocol. On day 7, the rats were boosted with a second subcutaneous injection. On day 6 of the study, rats were randomized by body weight into six groups: a control group of four, and five treatment groups of eight. […] Disease progression was monitored via daily ankle thickness measurements. At study termination on day 16 rats were anesthetized with Isoflurane, bled by vacutainer through the descending aorta to exsanguinate and then euthanized for tissue collection. Hind paws were transected at the level of the medial and lateral malleolus, weighed, and collected for microscopy.
[…]

[1] = ankle, day 16, MTX 0.075 mg/kg PO QD + test article vehicle PO BID, group mean
[2] = ankle, day 16, MTX 0.075 mg/kg PO QD + test article vehicle PO BID, individual joint (animal, R/L)
[3] = ankle, day 16, MTX 0.075 mg/kg PO QD + test article vehicle PO BID, vs vehicle
[4] = knee, day 16, MTX 0.075 mg/kg PO QD + test article vehicle PO BID, group mean
[5] = knee, day 16, MTX 0.075 mg/kg PO QD + test article vehicle PO BID, individual joint (animal, R/L)
[6] = knee, day 16, MTX 0.075 mg/kg PO QD + test article vehicle PO BID, vs vehicle

CN(Cc1cnc2nc(N)nc(N)c2n1)c1ccc(C(=O)N[C@@H](CCC(=O)O)C(=O)O)cc1 [MTX, methotrexate, reference compound]
Animal death (mongrel rats, AIA model; Methotrexate 0.2 mg/kg QD intragastric, 14 days): 0%
Animal death (mongrel rats, AIA model; Methotrexate 0.2 mg/kg QD intragastric, 18 days): 0%
Animal death (mongrel rats, AIA model; Methotrexate 0.2 mg/kg QD intragastric, 21 days): 0%
Animal death (mongrel rats, AIA model; Methotrexate 0.2 mg/kg QD intragastric, 25 days): 10%
Animal death (mongrel rats, AIA model; Methotrexate 0.2 mg/kg QD intragastric, 28 days): 20%
Animal death (mongrel rats, AIA model; Methotrexate 0.5 mg/kg QD intragastric, 14 days): 0%
Animal death (mongrel rats, AIA model; Methotrexate 0.5 mg/kg QD intragastric, 18 days): 0%
Animal death (mongrel rats, AIA model; Methotrexate 0.5 mg/kg QD intragastric, 21 days): 0%
Animal death (mongrel rats, AIA model; Methotrexate 0.5 mg/kg QD intragastric, 25 days): 20%
Animal death (mongrel rats, AIA model; Methotrexate 0.5 mg/kg QD intragastric, 28 days): 70%
Rats died (mongrel rats, AIA model; rat AIA, MTX 0.2 mg/kg): 20%
Rats died (mongrel rats, AIA model; rat AIA, MTX 0.5 mg/kg): 70%
Volume of treated (CFA-injected) paws (mongrel rats, AIA model; rat AIA, day 28): statistically significant reductions of paw volume
Volume of non-involved paws (mongrel rats, AIA model; rat AIA, high-dose MTX, day 28): decreased the volume of non-involved paws
Volume of non-involved paws (mongrel rats, AIA model; rat AIA, low-dose MTX, day 28): no statistically significant effect
Bone Resorption score, Mean (Lewis rats, CIA model; [1]): 1.19
Cartilage Damage score, Mean (Lewis rats, CIA model; [1]): 2.00
Inflammation score, Mean (Lewis rats, CIA model; [1]): 3.88
Pannus score, Mean (Lewis rats, CIA model; [1]): 1.19
Periosteal Bone Formation score, Mean (Lewis rats, CIA model; [1]): 0.63
Periosteal Naïve Bone Width Actual, Mean (Lewis rats, CIA model; [1]): 126.00 μm
Summed Histopathology Scores, Mean (Lewis rats, CIA model; [1]): 8.88
Bone Resorption score (0=normal to 5=severe) (Lewis rats, CIA model; [2]): 2 and 0 and 1 and 0.5
Cartilage Damage score (0=normal to 5=severe) (Lewis rats, CIA model; [2]): 3 and 0.5 and 2
Inflammation score (0=normal to 5=severe) (Lewis rats, CIA model; [2]): 5 and 1 and 4 and 3 and 2
Pannus score (0=normal to 5=severe) (Lewis rats, CIA model; [2]): 2 and 0 and 1 and 0.5
Periosteal Bone Formation score (0=normal to 5=severe) (Lewis rats, CIA model; [2]): 1 and 0 and 0.5
Periosteal Naïve Bone Width 16x Measure (Lewis rats, CIA model; [2]): 3 and 4 and 0 and 2 and 1
Periosteal Naïve Bone Width Actual (Lewis rats, CIA model; [2]): 189 μm and 252 μm and 0 μm and 126 μm and 63 μm
Summed Histopathology Scores (Lewis rats, CIA model; [2]): 13 and 1.5 and 9.5 and 8.5 and 6.5 and 12 and 4
Periosteal Naïve Bone Width, ANOVA to Vehicle (Lewis rats, CIA model; ankle, day 16, MTX 0.075 mg/kg PO QD + test article vehicle PO BID, p value): p < 0.05
Bone Resorption score, % inhibition (Lewis rats, CIA model; [3]): 19%
Cartilage Damage score, % inhibition (Lewis rats, CIA model; [3]): 17%
Inflammation score, % inhibition (Lewis rats, CIA model; [3]): 14%
Pannus score, % inhibition (Lewis rats, CIA model; [3]): 19%
Periosteal Bone Formation score, % inhibition (Lewis rats, CIA model; [3]): 51%
Periosteal Naïve Bone Width, % inhibition (Lewis rats, CIA model; [3]): 44%
Summed Histopathology Scores, % inhibition (Lewis rats, CIA model; [3]): 20%
Bone Resorption score, Mean (Lewis rats, CIA model; [4]): 0.28
Cartilage Damage score, Mean (Lewis rats, CIA model; [4]): 0.66
Inflammation score, Mean (Lewis rats, CIA model; [4]): 2.03
Pannus score, Mean (Lewis rats, CIA model; [4]): 0.44
Summed Histopathology Scores, Mean (Lewis rats, CIA model; [4]): 3.41
Bone Resorption score (0=normal to 5=severe) (Lewis rats, CIA model; [5]): 0.5 and 0 and 1
Cartilage Damage score (0=normal to 5=severe) (Lewis rats, CIA model; [5]): 1 and 0.5 and 0 and 2
Inflammation score (0=normal to 5=severe) (Lewis rats, CIA model; [5]): 3 and 0.5 and 1 and 0 and 5 and 4 and 2
Pannus score (0=normal to 5=severe) (Lewis rats, CIA model; [5]): 0.5 and 0 and 1
Summed Histopathology Scores (Lewis rats, CIA model; [5]): 5 and 4.5 and 0.5 and 2 and 1 and 0 and 9 and 6 and 5.5 and 3
Bone Resorption score, % inhibition (Lewis rats, CIA model; [6]): 61%
Cartilage Damage score, % inhibition (Lewis rats, CIA model; [6]): 50%
Inflammation score, % inhibition (Lewis rats, CIA model; [6]): 36%
Pannus score, % inhibition (Lewis rats, CIA model; [6]): 42%
Summed Histopathology Scores, % inhibition (Lewis rats, CIA model; [6]): 43%
Decrease of periosteal bone width in knee joints (Lewis rats, CIA model; rat CIA, MTX 0.075 mg/kg PO QD): ~ 43%
Histopathology scores for cartilage damage and bone resorption, ankles and knees (Lewis rats, CIA model; rat CIA, day 16): did not show statistical significance for any parameter
